Experiment [1] concerns the target T1, D2 (dopamine autoreceptor) (Rattus norvegicus, UniProt P61169).
T1 construct: homogenized rat striatal brain tissue; from tissue; host or cells: rat striatal brain tissue (homogenate)
Briefly: Affinity for dopamine autoreceptor (D2 high-affinity agonist state), 3H-quinpirole binding, rat striatal brain tissue. Conditions: read-out: IC50 (nM) D2 Quin. As for the experimental part: Affinity for the dopamine autoreceptor was established by a modification of the standard experimental test procedure of Seemen and Schaus, European Journal of Pharmacology 203: 105-109, 1991, wherein homogenized rat striatal brain tissue is incubated with ^3 H-quinpirole (Quin.) and various concentrations of test compound, filtered and washed and counted in a Betaplate scintillation counter.

A further experiment has as its target T2, dopamine D-2 receptor (Rattus norvegicus, UniProt P61169).
T2 construct: homogenized limbic brain tissue; from tissue; host or cells: limbic brain tissue (homogenate)
Briefly: Affinity for dopamine D-2 receptor, 3H-spiroperidol (Spiper.) binding, homogenized limbic brain tissue. Conditions: read-out: IC50 (nM) D2 Spiper. As for the experimental part:
High affinity for the dopamine D-2 receptor was established by the standard experimental test procedure of Fields, et al., Brain Res., 136, 578 (1977) and Yamamura et al., eds., Neurotransmitter Receptor Binding, Raven Press, N.Y. (1978) wherein homogenized limbic brain tissue is incubated with ^3 H-spiroperidol (Spiper.) and various concentrations of test compound, filtered and washed and shaken with Hydrofluor scintillation cocktail (National Diagnostics) and counted in a Packard 460 CD scintillation counter.

T2 sequence (P61169 whole entry): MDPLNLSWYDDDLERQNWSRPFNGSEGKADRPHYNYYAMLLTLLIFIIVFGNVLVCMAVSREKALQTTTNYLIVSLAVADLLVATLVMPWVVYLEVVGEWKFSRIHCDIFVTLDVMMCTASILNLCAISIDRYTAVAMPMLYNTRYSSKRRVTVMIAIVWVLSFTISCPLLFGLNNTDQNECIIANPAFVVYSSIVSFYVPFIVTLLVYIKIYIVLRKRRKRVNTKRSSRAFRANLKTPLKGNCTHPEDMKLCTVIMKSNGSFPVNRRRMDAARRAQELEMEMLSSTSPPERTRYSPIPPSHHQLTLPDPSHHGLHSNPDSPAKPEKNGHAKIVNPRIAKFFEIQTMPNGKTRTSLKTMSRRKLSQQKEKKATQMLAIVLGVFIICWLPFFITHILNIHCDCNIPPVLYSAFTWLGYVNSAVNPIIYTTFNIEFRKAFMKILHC
T1 sequence (P61169 whole entry): as above

With `CC(C)(C)c1ccc(CNCCOc2cccc3[nH]c(=O)[nH]c23)cc1` [Example 6, 4-[2-(4-tert-Butyl-benzylamino)-ethoxy]-1,3-dihydro-benzoimidazol-2-one], the results for the IC50 (in experiment [1]; on dopamine D-2 receptor) were 0.81 nM and 47.8 nM, respectively.
The like results for `O=c1[nH]c2cccc(OCCNCc3cccs3)c2[nH]1` [Example 7, 4-{2-[(Thiophen-2-ylmethyl)-amino]-ethoxy}-1,3-dihydro-benzoimidazol-2-one] were, in that order, 0.51 nM and 255 nM.
Turning to `Cn1c(=O)[nH]c2cccc(OCCNCc3ccccc3)c21` [Example 3, 4(7)-(2-Benzylamino-ethoxy)-1-(3)-methyl-1,3-dihydro-benzoimidazol-2-one], the IC50 – broadly, the point on the concentration scale where inhibition reaches its midpoint – in experiment [1] was 2.92 nM; on dopamine D-2 receptor, 1350 nM.
`O=c1[nH]c2cccc(OCCNCc3cccc4ccccc34)c2[nH]1` [Example 5, 4-{2-[(Naphthalen-1-ylmethyl)-amino]-ethoxy}-1,3-dihydro-benzoimidazol-2-one]: the half-maximal inhibitory concentration (IC50) was 0.6 nM in experiment [1] and 38.7 nM at dopamine D-2 receptor.
`O=c1[nH]c2cccc(OCCN3CCc4ccccc4C3)c2[nH]1` [Example 12, 4-[2-(2,3-Dihydro-1H-isoquinolin-2yl)-ethoxy]-1,3-dihydro-benzoimidazol-2-one]: the IC50 was 12 nM in experiment [1] and 658 nM at dopamine D-2 receptor.
As for `O=c1[nH]c2cccc(OCCNCc3ccc(Cl)cc3)c2[nH]1` [Example 8, 4-[2-(4-Chloro-benzylamino)-ethoxy]-1,3-dihydro-benzoimidazol-2-one], the IC50 turned out to be 0.3 nM in experiment [1] and 99.5 nM at dopamine D-2 receptor.
In the case of `O=c1[nH]c2cc(Cl)cc(OCCNCc3ccccc3)c2[nH]1` [Example 9, 4-(2-Benzylamino-ethoxy)-6-chloro-1,3-dihydro-benzoimidazol-2-one], the results for the half-inhibitory concentration (IC50) (in experiment [1]; on dopamine D-2 receptor) were 0.48 nM and 34.6 nM, respectively.
For `O=c1[nH]c2cccc(OCCNCCCc3ccccc3)c2[nH]1` [Example 13, 4-[2-(3-Phenyl-propylamine)-ethoxy]-1,3-dihydro-benzoimidazol-2-one], the IC50 in experiment [1] came out at 0.3 nM; on dopamine D-2 receptor, 30 nM.
In the case of `O=c1[nH]c2cccc(OCCCNCc3ccccc3)c2[nH]1` [Example 4, 4-(3-Benzylamino-propoxy)-1,3-dihydro-benzoimidazol-2-one], the values for the IC50 (in experiment [1]; at dopamine D-2 receptor) were 126 nM and 5980 nM, respectively.
In the same order, the values of `O=c1[nH]c2cc(Cl)cc(OCCNCc3cccs3)c2[nH]1` [Example 10, 6-Chloro-4-{2-[(thiophen-2-ylmethyl)-amino]-ethoxy}-1,3-dihydro-benzoimidazol-2-one] are 0.47 nM and 58 nM.
The like results for `O=c1[nH]c2cc(Cl)cc(OCCNCc3ccsc3)c2[nH]1` [Example 11, 6-Chloro-4-{2-[(thiophen-3-ylmethyl)-amino]-ethoxy}-1,3-dihydro-benzoimidazol-2-one] were, in that order, 0.31 nM and 67 nM.
The like results for `O=c1[nH]c2cccc(OCCNCc3ccccc3)c2[nH]1` [Example 1, 4-(2-Benzylamino-ethoxy)-1,3-dihydro-benzoimidazol-2-one] were, in that order, 0.51 nM and 60.6 nM.
Consider `Cc1ccc(CNCCOc2cccc3[nH]c(=O)[nH]c23)cc1` [Example 2, 4-[2-(4-Methyl-benzylamino)-ethoxy]-1,3-dihydro-benzoimidazol-2-one], for which the IC50 in experiment [1] was found to be 0.29 nM; on dopamine D-2 receptor, 28.5 nM.

The record behind these values is patent US5990144A, “4-aminoalkoxy-1,3-dihydrobenzoimidazol-2-one dopamine autoreceptor agonists” (American Home Products Corporation, priority 1998, dated 1999).
